Reference: patent publication US6608178B1, “5-hydroxytryptophol (5-HTOL) derivatives, antibodies, immunoassays and detection of recent alcohol consumption” (Alco Dia A.B., priority 1996, dated 2003)

System: mouse monoclonal anti-5-HTOL antibody
Test: Cross reactivity in the competitive immunoassay (labelled conjugate IV vs. anti-5-HTOL antibody)
Format: binding
Settings: allowable maximal cross reactivity in urine for a 50 nM detection limit of T-5-G; the tested antibody complied with these criteria
Procedure: Crossreactivity for various substances was measured in the immunoassay method described below with dilutions (in the diluent) of the tested substance used in stead of urine or standard. The concentration range tested for each substance covered three magnitudes and was up to or above one magnitude the highest noted literature value.
Diluent was 0.05 M sodium phosphate buffer, pH 7.0, containing 0.01 M EDTA, 0.1% Tween® and 1% BSA. Decanting solution was Pharmacia decanting suspension without added antibody suspension (Pharmacia Diagnostics AB). μ-agarose particles carried covalently bound sheep-anti-mouse antibody.
Assay Procedure: Pipette to a test tube 50 μl urine or standard, 50 μl tracer solution, 50 μl antibody solution (one of the above-mentioned six selected clones, 5 μg/ml), mix on shaker ˜600 rpm for ˜1 min, allow to stand for 1.5 h at room temperature, 50 μl of the sheep anti-mouse micro-agarose suspension (˜100 mg/ml), mix as above and let stand for another 0.5 h, then add 2 ml decanting solution, centrifuge 10 min at 3000 rpm, with tubes in Pharmacia decanting racks, in the JR-3.2 Rack Rotor, in a Beckman J-6B centrifuge. Within 5 min after completed centrifugation decant the supernatant and let tube racks stand inverted on absorbtive tissue for 2 min. Finally the remaining radioactivity in the tubes is measured in a gamma counter. A standard curve is made with T-5-G in the diluent at 10, 100, 1000 and 10000 nmol/L.

SMILES | Acceptable Crossreactivity [%]
C[C@]12CC[C@@H]3c4ccc(O[C@@H]5O[C@H](C(=O)O)[C@@H](O)[C@H](O)[C@H]5O)cc4CC[C@H]3[C@@H]1CCC2=O [estrone-β-D-glucuronide] | ≤ 50
N[C@@H](Cc1c[nH]c2ccc(O)cc12)C(=O)O [5-hydroxytryptophan] | ≤ 0.1
N[C@@H](Cc1c[nH]c2ccccc12)C(=O)O [tryptophan] | ≤ 0.6
O=Cc1c[nH]c2ccccc12 [indole-3-aldehyde] | ≤ 0.05
NCCc1c[nH]c2ccccc12 [tryptamine] | ≤ 6
O=S(=O)(O)Oc1c[nH]c2ccccc12 [indoxyl sulphate] | ≤ 0.002
COc1ccc2[nH]cc(CCO)c2c1 [5-methoxytryptophol] | ≤ 5
COc1ccc2[nH]cc(CCNC(C)=O)c2c1 [melatonin] | ≤ 50
COc1ccc2[nH]cc(CCN)c2c1 [5-methoxytryptamine] | ≤ 5
CC12CCC(=O)C=C1CCC1C2CCC2(C)C(OC3OC(C(=O)O)C(O)C(O)C3O)CCC12 [testosterone-β-D-glucuronide] | ≤ 50
O=C(O)Cc1c[nH]c2ccc(O)cc12 [5-HIAA, 5-hydroxyindole-3-acetic acid] | ≤ 0.07
NCCc1c[nH]c2ccc(O)cc12 [serotonin, 5-hydroxytryptamine] | ≤ 7
O=C(O)[C@H]1O[C@@H](Oc2c[nH]c3ccccc23)[C@H](O)[C@@H](O)[C@@H]1O [indoxyl-β-D-glucuronide] | ≤ 0.002
O=C(O)[C@H]1O[C@@H](Oc2ccc([N+](=O)[O-])cc2)[C@H](O)[C@@H](O)[C@@H]1O [p-nitrophenyl-β-D-glucuronide] | ≤ 0.002
O=C(O)Cc1c[nH]c2ccccc12 [indolyl acetic acid] | ≤ 0.07

System: not given
Test: not given
Settings: human urine; cited from earlier work

SMILES | Share of urinary 5-HTOL conjugated with glucuronic acid
O=C(O)[C@H]1O[C@@H](Oc2ccc3[nH]cc(CCO)c3c2)[C@H](O)[C@@H](O)[C@@H]1O [T-5-G, 3-(2-hydroxyethyl)indole-5-yl-O-β-D-glucopyranosiduronic acid] | 75-95%
